Assay [1] has as its target T1, human dopamine D1 receptor (Homo sapiens, UniProt P21728).
T1 construct: A 1.4 Kb Hind III to Xho I fragment was subcloned into the vector pMMLV; expressed in transfected cells; host or cells: CHO cells, clone CHO-D1M#9 (plasmid pHD1MMLV), membranes
Nature of the assay: [3H]-SCH-23390 binding to cloned human dopamine D1 receptors (CHO cell membranes). To be noted: competitive binding, [3H]-SCH-23390, cloned human D1 in CHO membranes; read-out: D1 affinity Ki. The protocol:
[^3H]-SCH-23390 Binding to Cloned Human Dopamine D1 Receptors
Determination of relative binding affinity of potential neuropsychiatric and other agents for the human dopamine D1 receptor.
The human D, cDNA was obtained from the laboratory of Dr. Marc Caron in the vector pCMV5. A 1.4 Kb Hind III to Xho I fragment was subcloned into the vector pMMLV. The plasmid pHD1MMLV was then sequenced completely. Transient transfections in COS-7 cells were performed and D1 specific binding was obtained. The construct pHD1MMLV was then transfected stably into CHO cells and 72 G418-resistant clones were isolated. High expressors were identified by mRNA dot blot analysis. Six high expressors were further characterized by binding and then clone CHO-D1M#9 was chosen for detailed pharmacological characterization. This clone was then grown in suspension culture for the purpose of obtaining enough protein to accommodate several months of screening.
B. Cell Culture Conditions
• 1. […] Cells are transferred to suspension culture when at least […] are available (this allows for 300,000 cells/ml in a 50 ml spinner flask; this is the ideal suspension density). Cells are removed from flasks with trypsin, spun down at 1000×G and resuspended the pellet in fresh medium: • 50% CHO-SFM-II+50% Ham's F12 w/10% FBS (final FBS conc. 5%)+400 μg/ml G418+1% P/S. • 3. After the transfer to suspension culture, growth is monitored and cell viability is assessed using trypan blue exclusion. Total and viable cell count on 5 sectors of the hemocytometer are recorded. When the viable cell density reaches 600,000 cell/ml, the volume is doubled. • 4. After 1 week of growth in the 50/50 medium, the cells are spun down and transferred to a new spinner flask and replaced with 75% CHO-SFM II/25% Ham's F12+10% FBS plus the pen-strep and G418. Thereafter every 3 days, the medium is replaced with new medium containing a decreasing amount of FBS as follows:
• 5. The final maintenance culturing medium is made up as follows: • A stock mixture of 10 ml of pen-strep, 0.5 ml of […] (active; final concentration: 200 μg/ml) G418 and 1 ml of FBS are mixed and filtered and refrigerated. A volume (11.5 ml) of this mixture is added to a freshly opened 1 L bottle of CHO-SFM II. C. Membrane Preparation
Cells are harvested into 250 ml centrifuge tubes and spun down at 1200×G. The medium is removed and 100 ml PBS (phosphate-buffered saline) is added to each centrifuge tube; cells are resuspended and spun down again. The PBS is removed and the final pellet is homogenized with a polytron on ice at a medium setting.
The membrane suspension is diluted in water and samples (10, 50 and 100 μl; q.s. to 100 μl with water) are diluted with 100 μl of 1% SDS. The sample is vortexed and allowed to stand for 5 min. Two aliquots each of the solubilized protein sample are placed in clean 13×100 test tubes for the assay. Instructions are followed as outlined in the BioRad DC protein determination kit (Catalog # 500-0112). OD readings that fall between 0.1-0.5 (mid-range of standard curve) should typically be used for calculations. Protein concentrations are calculated from a standard curve using bovine serum albumin as standard by linear regression and interpolation.
Following cell harvesting and protein determination, the homogenate is diluted with 10% DMSO to the correct volume based on Bmax and relative size of individual experiments to be conducted. The concentrated protein is stored in cryogenic vials in aliquots of 1-1.5 ml. Samples may be stored in −80° C. freezer or in liquid nitrogen.

For assay [2], the target named is human dopamine D2Long (D2L) receptors (Homo sapiens, UniProt P14416).
Procedure: [N-Methyl-^3H]Spiroperidol Binding to Cloned Human Dopamine D2Long Receptors
This assay measures the in vitro activity of drugs on cloned human dopamine D2Long (D2L) receptors and predicts the direct dopamine-displacing properties of neuropsychiatric, cardiovascular and renal agents at human dopamine D2 receptors.
Cells were maintained in Ham's F12+10% Fetal Bovine Serum+Penicillin/Streptomycin (100 U/ml/100 μg/ml)+G418 (400 μg/ml) medium and were split using Trypsin-EDTA (1 ml/plate, room temperature for ˜2 min. or until cells have lifted off plates). • 2. […] Plates are incubated at 37° C.+5% CO2 for ˜3 days or until cells were confluent.
Cells are harvested by mechanical scraping, washed using PBS collected in 250 ml Corning polypropylene centrifuge tubes, spun down and resuspended in dH2O (final volume per harvest approximately 60 ml). Protein determination is made according to the method of Lowry (Biorad DC Assay Kit). Following the determination of the protein concentration, the protein is diluted into distilled water with 10% DMSO to the appropriate volume based on expression levels (Bmax). The concentrated protein is aliquoted into 1.5 ml screw top eppendorf tubes and placed into a −80° C. freezer.
Assay Requirement: 1 cryovial per two 96 well plates
0.5M Tris Wash Buffer, pH 7.7 • a) 44.4 g Tris HCl • 26.5 g Tris Base • q.s. to 1 Liter (0.5 M Tris buffer, pH 7.7 at 37° C.) • b) make a 1:10 dilution in distilled H2O (0.05 M. Tris buffer, pH 7.7) • 2. Tris Buffer containing physiological salts • a) Stock buffer • NaCl 7.014 g • KCl 0.372 g • CaCl2 0.222 g • MgCl2 0.204 g • q.s. To 100 ml with 0.5 M. Tris Buffer • b) Dilute 1:10 in distilled H2O • This yields 0.05 M. Tris HCl, pH 7.7, containing NaCl (120 mM), KCl (5 mM), CaCl2 (2 mM) and MgCl2 (1 mM) • Optional: add 0.1% ascorbic acid and check pH (in assays with compounds that may oxidize. • c) 1.0% polyethyleneimine stock in 0.5M Tris (reagent 1.a) • Dilute 1:10 in distilled H2O Binding Assay • 750 μl Tissue • 150 μl [^3H]NMSP • 100 μl vehicle (for total binding) or 30 μM (−)
eticlopride (for nonspecific binding) or appropriate drug concentration.
The 96-Well Packard Unifilters GF/B are incubated for >1 h at 25° C. in 0.1% polyethylenimine. The cold tissue is added last and mixed on a orbital shaker for a few seconds and is then incubated at 37° C. for 30 min in a shaking water bath. The assay is stopped by rapid filtration through Packard Unifilter plates. The filter membranes are then washed with 15 ml of ice-cold 0.05 M Tris buffer. The filters are then dried (˜15 min. under a heat lamp or incubated for 15 min. in a 60° C. oven) and a bottom seal is applied. Then 40 μl of Packard Microscint 20 scintillation cocktail are added and a permanent topseal (Type P) is applied and heat sealed. The plates are placed in a Packard Topcount.
Specific binding is defined as the difference between total binding and the binding in the presence of 3 μM S-(−)-eticlopride. Total binding is approximately 10% of the total added ligand. […] The percent inhibition at each drug concentration is the mean of duplicate determinations.

Counter-ions that a name gives are not always drawn. A value given as a limit tells only on which side of the number the result lay.

human dopamine D2Long (D2L) receptors, sequence (P14416 whole entry): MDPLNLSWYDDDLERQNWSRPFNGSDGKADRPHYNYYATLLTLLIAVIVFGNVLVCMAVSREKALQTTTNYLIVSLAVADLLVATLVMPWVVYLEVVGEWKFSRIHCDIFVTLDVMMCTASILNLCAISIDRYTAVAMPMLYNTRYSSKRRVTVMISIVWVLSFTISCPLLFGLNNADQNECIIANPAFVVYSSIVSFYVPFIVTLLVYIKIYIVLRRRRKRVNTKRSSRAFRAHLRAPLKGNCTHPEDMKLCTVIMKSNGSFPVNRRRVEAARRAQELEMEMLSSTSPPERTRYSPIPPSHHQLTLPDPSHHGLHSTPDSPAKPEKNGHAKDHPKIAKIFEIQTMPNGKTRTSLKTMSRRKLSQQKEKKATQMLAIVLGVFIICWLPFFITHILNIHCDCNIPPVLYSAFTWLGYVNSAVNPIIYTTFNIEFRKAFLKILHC
T1 sequence (P21728 whole entry, the tested form may be a part): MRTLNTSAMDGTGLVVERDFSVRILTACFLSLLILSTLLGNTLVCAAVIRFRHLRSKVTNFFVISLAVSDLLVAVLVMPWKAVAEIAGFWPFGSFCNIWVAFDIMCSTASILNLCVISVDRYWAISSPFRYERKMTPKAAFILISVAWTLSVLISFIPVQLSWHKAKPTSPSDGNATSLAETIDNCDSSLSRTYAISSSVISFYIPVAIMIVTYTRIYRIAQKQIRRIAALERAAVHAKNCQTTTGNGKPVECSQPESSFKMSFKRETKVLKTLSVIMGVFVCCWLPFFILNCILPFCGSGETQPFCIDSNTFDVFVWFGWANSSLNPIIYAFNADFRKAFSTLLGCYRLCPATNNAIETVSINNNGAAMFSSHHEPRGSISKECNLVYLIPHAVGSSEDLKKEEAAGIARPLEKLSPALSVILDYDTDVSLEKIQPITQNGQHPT

What is called Ki is the dissociation constant of the complex between target and ligand, obtained from inhibition or displacement. For `Cc1ccc2c(c1O)C[C@@H](C1CCN(S(=O)(=O)Cc3ccc(Cl)c(Cl)c3)CC1)O[C@H]2CN` [Example 160, (1R,3S)-1-Aminomethyl-3-[1-(3,4-dichloro-phenylmethanesulfonyl)-piperidin-4-yl]-6-methyl-isochroman-5-ol hydrochloride], the Ki in assay [1] was 264 nM; in assay [2], at least 100000 nM.

Turning to `Cc1ccc2c(c1O)C[C@@H](C1CCN(S(=O)(=O)C[C@@]34CC[C@@H](CC3=O)C4(C)C)CC1)O[C@H]2CN` [Example 162, 1(R)-[4-((1R,3S)-1-Aminomethyl-5-hydroxy-6-methyl-isochroman-3-yl)-piperidine-1-sulfonylmethyl]-7,7-dimethyl-bicyclo[2.2.1]heptan-2-one hydrochloride], the Ki in assay [1] was 382 nM; in assay [2], at least 100000 nM.

As for `Cc1ccc2c(c1O)C[C@@H](C1CCN(S(=O)(=O)C[C@]34CC[C@H](CC3=O)C4(C)C)CC1)O[C@H]2CN` [Example 163, 1(S)-[4-((1R,3S)-1-Aminomethyl-5-hydroxy-6-methyl-isochroman-3-yl)-piperidine-1-sulfonylmethyl]-7,7-dimethyl-bicyclo[2.2.1]heptan-2-one hydrochloride], the Ki in assay [1] was 320 nM; in assay [2], at least 100000 nM.

As to `Cc1ccc2c(c1O)C[C@@H](C1CCN(S(=O)(=O)N(C)C)CC1)O[C@H]2CN` [Example 164, 4-((1R,3S)-1-Aminomethyl-5-hydroxy-6-methyl-isochroman-3-yl)-piperidine-1-sulfonic acid dimethylamide hydrochloride], the Ki in assay [1] was 400 nM; in assay [2], at least 100000 nM.

Regarding `Cc1ccc2c(c1O)C[C@@H](C1CCN(S(=O)(=O)N3CCCCC3)CC1)O[C@H]2CN` [Example 165, (1R,3S)-1-Aminomethyl-6-methyl-3-[1-(piperidine-1-sulfonyl)-piperidin-4-yl]-isochroman-5-ol hydrochloride], the Ki was 227 nM in assay [1] and at least 10000 nM in assay [2].

For `Cc1ccc2c(c1O)C[C@@H](C1CCN(S(=O)(=O)N3CCC(Cc4ccccc4)CC3)CC1)O[C@H]2CN` [Example 166, (1R,3S)-1-Aminomethyl-3-[1-(4-benzyl-piperidine-1-sulfonyl)-piperidin-4-yl]-6-methyl-isochroman-5-ol hydrochloride], the Ki in assay [1] worked out at 207 nM; in assay [2] it was 246 nM.

In the case of `Cc1ccc2c(c1O)C[C@@H](C1CCN(Cc3ccccc3)CC1)O[C@H]2CN(C)C` [Example 169, (1R,3S)-3-(1-Benzyl-piperidin-4-yl)-1-dimethylaminomethyl-6-methyl-isochroman-5-ol], the figures for the inhibition constant (Ki) in assay [1] and in assay [2] were 158 nM and 172 nM, respectively.

Take `CCN(CC)C[C@@H]1O[C@H](C2CCN(Cc3ccccc3)CC2)Cc2c1ccc(C)c2O` [Example 170, (1R,3S)-3-(1-Benzyl-piperidin-4-yl)-1-diethylaminomethyl-6-methyl-isochroman-5-ol]: the results for the Ki in assay [1] and in assay [2] were 1670 nM and 377 nM, respectively.

In the case of `CNC[C@@H]1O[C@H](C2CCN(Cc3ccccc3)CC2)Cc2c1ccc(C)c2O` [Example 171, (1R,3S)-3-(1-Benzyl-piperidin-4-yl)-6-methyl-1-methylaminomethyl-isochroman-5-ol], the results for the Ki in assay [1] and in assay [2] were 98 nM and 317 nM, respectively.

As to `CCNC[C@@H]1O[C@H](C2CCN(Cc3ccccc3)CC2)Cc2c1ccc(C)c2O` [Example 172, (1R,3S)-3-(1-Benzyl-piperidin-4-yl)-1-ethylaminomethyl-6-methyl-isochroman-5-ol], the Ki in assay [1] came to 522 nM; in assay [2], 279 nM.

Turning to `CCN(C)C[C@@H]1O[C@H](C2CCN(Cc3ccccc3)CC2)Cc2c1ccc(C)c2O` [Example 173, (1R,3S)-3-(1-Benzyl-piperidin-4-yl)-1-[(ethyl-methyl-amino)-methyl]-6-methyl-isochroman-5-ol], the results for the inhibition constant Ki in assay [1] and in assay [2] were 425 nM and 241 nM, respectively.

`CCCNC[C@@H]1O[C@H](C2CCN(Cc3ccccc3)CC2)Cc2c1ccc(C)c2O` [Example 174, (1R,3S)-3-(1-Benzyl-piperidin-4-yl)-6-methyl-1-propylaminomethyl-isochroman-5-ol]: the Ki is 510 nM in assay [1] and 248 nM in assay [2].

Consider `CCCN(C)C[C@@H]1O[C@H](C2CCN(Cc3ccccc3)CC2)Cc2c1ccc(C)c2O` [Example 175, (1R,3S)-3-(1-Benzyl-piperidin-4-yl)-6-methyl-1-[(methyl-propyl-amino)-methyl]-isochroman-5-ol], for which the values for the Ki in assay [1] and in assay [2] were 3070 nM and at least 10000 nM, respectively.

In the case of `C=CCN(C)C[C@@H]1O[C@H](C2CCN(Cc3ccccc3)CC2)Cc2c1ccc(C)c2O` [Example 176, (1R,3S)-1-[(Allyl-methyl-amino)-methyl]-3-(1-benzyl-piperidin-4-yl)-6-methyl-isochroman-5-ol], the Ki turned out to be 1700 nM in assay [1] and 124 nM in assay [2].

Turning to `Cc1ccc2c(c1O)C[C@@H](C1CCN(Cc3ccccc3)CC1)O[C@H]2CNC1CCC1` [Example 177, (1R,3S)-3-(1-Benzyl-piperidin-4-yl)-1-cyclobutylaminomethyl-6-methyl-isochroman-5-ol], the values for the Ki in assay [1] and in assay [2] were at least 10000 nM and 305 nM, respectively.

On to `C=CCN(CC=C)C[C@@H]1O[C@H](C2CCN(CC(=O)c3ccccc3)CC2)Cc2c1ccc(C)c2O` [Example 180, 2-[4-((1R,3S)-1-Diallylaminomethyl-5-hydroxy-6-methyl-isochroman-3-yl)-piperidin-1-yl]-1-phenyl-ethanone], for which the values for the Ki in assay [1] and in assay [2] were 642 nM and 86 nM, respectively.

For the compound `CCCN(CCC)C[C@@H]1O[C@H](C2CCN(Cc3ccccc3)CC2)Cc2c1ccc(C)c2O` [Example 188, (1R,3S)-3-(1-Benzyl-piperidin-4-yl)-1-dipropylaminomethyl-6-methyl-isochroman-5-ol dihydrochloride], the Ki in assay [1] was 586 nM; in assay [2] it was 140 nM.

`Cc1ccc(C(=O)NCCN2CCC([C@@H]3Cc4c(ccc(C)c4O)[C@H](CN)O3)CC2)cc1` [Example 190, N-{2-[4-((1R,3S)-1-Aminomethyl-5-hydroxy-6-methylisochroman-3-yl)-piperidin-1-yl]-ethyl}-4-methylbenzamide dihydrobromide]: the inhibition constant (Ki) worked out at 46 nM in assay [1] and 361 nM in assay [2].
